A short description of data set [1]: Bioavailability in rhesus monkey […], po. Format: ADME, organism-based, Macaca mulatta. Conditions: in vivo.
A short description of data set [2]: Volume of distribution in Sprague-Dawley rat at 1 mg/kg, iv. In kind it is ADME, organism-based. Further details: dose 1 mg/kg, route intravenous. Conditions: in vivo, read-out: Vdss.
For data set [3], the target named is T1, Endothelin-converting enzyme 1 (Homo sapiens) (UniProt P42892).
T1 sequence (whole entry): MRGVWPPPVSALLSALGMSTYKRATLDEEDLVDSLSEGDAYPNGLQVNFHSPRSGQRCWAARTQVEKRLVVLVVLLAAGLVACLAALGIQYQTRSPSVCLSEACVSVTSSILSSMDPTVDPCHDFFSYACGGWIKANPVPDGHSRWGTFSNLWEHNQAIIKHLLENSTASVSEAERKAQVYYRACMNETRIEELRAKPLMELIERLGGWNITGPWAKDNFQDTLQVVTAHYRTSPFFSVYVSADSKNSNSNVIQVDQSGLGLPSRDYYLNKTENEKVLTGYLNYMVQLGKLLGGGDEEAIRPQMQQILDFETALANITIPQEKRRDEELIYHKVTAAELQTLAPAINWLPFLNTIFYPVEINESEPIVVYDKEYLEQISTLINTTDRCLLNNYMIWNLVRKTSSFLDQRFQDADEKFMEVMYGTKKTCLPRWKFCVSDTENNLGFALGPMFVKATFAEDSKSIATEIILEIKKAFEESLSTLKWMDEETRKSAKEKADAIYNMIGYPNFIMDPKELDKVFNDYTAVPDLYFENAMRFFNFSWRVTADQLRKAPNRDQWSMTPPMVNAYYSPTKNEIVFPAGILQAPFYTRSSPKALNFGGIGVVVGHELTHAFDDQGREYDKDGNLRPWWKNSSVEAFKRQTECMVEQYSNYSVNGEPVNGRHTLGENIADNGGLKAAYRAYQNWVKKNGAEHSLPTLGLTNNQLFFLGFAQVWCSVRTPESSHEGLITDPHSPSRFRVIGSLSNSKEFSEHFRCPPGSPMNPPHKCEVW
Put plainly: Inhibition of ECE at 10 uM.

Data set [4] in a line: Cmax in Guinea pig at 2 mg/kg, iv. Format: ADME, organism-based, Cavia porcellus. Further details: dose 2 mg/kg, route intravenous. Conditions: in vivo.
A short description of data set [5]: Tmax in BALB/c mice at 10 mg/kg, iv. In kind it is ADME, organism-based. Further details: dose 10 mg/kg, route intravenous. The settings on record: mouse, in vivo.
A short description of data set [6]: Volume of distribution in Guinea pig at 2 mg/kg, iv. In kind it is ADME, organism-based, Cavia porcellus. Further details: dose 2 mg/kg, route intravenous. Conditions: in vivo, read-out: Vdss.
A short description of data set [7]: Half life in Sprague-Dawley rat at 1 mg/kg, iv. Format: ADME, organism-based. Further details: dose 1 mg/kg, route intravenous. The settings on record: in vivo.
Data set [8] can be described thus: Half life in New Zealand White rabbit at 5 mg/kg, iv. Format: ADME, organism-based, Oryctolagus cuniculus. Further details: dose 5 mg/kg, route intravenous. The settings on record: in vivo.
Data set [9] can be described thus: Volume of distribution in New Zealand White rabbit at 5 mg/kg, iv. Format: ADME, organism-based, Oryctolagus cuniculus. Further details: dose 5 mg/kg, route intravenous. Conditions: in vivo, read-out: Vdss.

A value given as a limit tells only on which side of the number the result lay.

The bioavailability is dose-corrected exposure relative to a reference, in per cent. The inhibition is the drop in the measured response relative to a control, in per cent. In general, Cmax refers to the peak of the concentration-time curve. What is called Tmax is the time from dosing to the highest level. One may read the half-life as the time in which the quantity being followed falls by half.

As for `Cc1cc(S(=O)(=O)N[C@@H](C(=O)NO)C2CCOCC2)ccc1F`, the bioavailability in data set [1] came to 16%. Also, the results for the Vd in [2], in data set [6] and in data set [9] were 3.9 L/kg, 1.1 L/kg and 3.8 L/kg, respectively. This compound returned an inhibition in data set [3] below 10%. The same compound came in with a Cmax in data set [4] of 250 nM. In addition, the Tmax in data set [5] turned out to be 0.3 h. The half-life was 1.4 h in [7] and 2.5 h in data set [8].

(Values after ChEMBL document CHEMBL1138106, “The discovery of a potent and selective lethal factor inhibitor for adjunct therapy of anthrax infection” (Bioorg Med Chem Lett, 2006).)
